#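 Exposure lasted 48 hours, with cells grown in 96-well plates and compounds tested at five concentrations. The concentration for 50% growth inhibition is given as GI50.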 Active and inactive are the calls of the source. Cut-off read from the data, not from the text of the source: active = GI50 up to about 1.1 µM and inactive = higher.
# Legend:
# Test in all cases: NCI anticancer screen, dose series, 48 h
# M14 = test system: M14
# Malme-3M = test system: Malme-3M
# MDA-N = test system: MDA-N
# SK-OV-3 = test system: SK-OV-3
# SNB-19 = test system: SNB-19
# U-251 = test system: U-251
# ACHN = test system: ACHN
# SF-539 = test system: SF-539
# A498 = test system: A498
# EKVX = test system: EKVX
# SW-620 = test system: SW-620
# SK-MEL-5 = test system: SK-MEL-5
# MDA-MB-435 = test system: MDA-MB-435
# K562 = test system: K562
# CCRF-CEM = test system: CCRF-CEM
# IGROV-1 = test system: IGROV-1
# Hs-578T = test system: Hs-578T
# SN12C = test system: SN12C
# NCI-H522 = test system: NCI-H522
# SK-MEL-28 = test system: SK-MEL-28
SMILES,GI50 (M14),GI50 (Malme-3M),GI50 (MDA-N),GI50 (SK-OV-3),GI50 (SNB-19),GI50 (U-251),GI50 (ACHN),GI50 (SF-539),GI50 (A498),GI50 (EKVX),GI50 (SW-620),GI50 (SK-MEL-5),GI50 (MDA-MB-435),GI50 (K562),GI50 (CCRF-CEM),GI50 (IGROV-1),GI50 (Hs-578T),GI50 (SN12C),GI50 (NCI-H522),GI50 (SK-MEL-28)
CCOC1(OCC)C2C=CC1C(COS(=O)(=O)c1ccc(C)cc1)C2COS(=O)(=O)c1ccc(C)cc1 (stereo not given),26.8 µM (inactive),24.4 µM (inactive),28.8 µM (inactive),33.3 µM (inactive),33.8 µM (inactive),29.9 µM (inactive),33.7 µM (inactive),41.4 µM (inactive),24 µM (inactive),22.4 µM (inactive),36.3 µM (inactive),15.2 µM (inactive),29 µM (inactive),20.5 µM (inactive),20 µM (inactive),43.1 µM (inactive),37.3 µM (inactive),69.8 µM (inactive),18.1 µM (inactive),84.9 µM (inactive)
CC1OC(OCC2OC(Oc3ccc(C4CC(=O)c5c(O)cc(O)cc5O4)cc3O)C(O)C(O)C2O)C(O)C(O)C1O (stereo not given),> 100 µM (inactive),> 100 µM (inactive),> 100 µM (inactive),> 100 µM (inactive),> 100 µM (inactive),> 100 µM (inactive),> 100 µM (inactive),> 100 µM (inactive),> 100 µM (inactive),> 100 µM (inactive),> 100 µM (inactive),> 100 µM (inactive),> 100 µM (inactive),> 100 µM (inactive),> 100 µM (inactive),> 100 µM (inactive),> 100 µM (inactive),> 100 µM (inactive),> 100 µM (inactive),> 100 µM (inactive)
COc1cc(C2c3cc4c(cc3OC(O)C2C)OCO4)cc(OC)c1O (stereo not given),6.9 µM (inactive),3.86 µM (inactive),1.84 µM (inactive),6.59 µM (inactive),11.6 µM (inactive),7.16 µM (inactive),12.4 µM (inactive),6.28 µM (inactive),23 µM (inactive),19.2 µM (inactive),4 µM (inactive),4.66 µM (inactive),1.95 µM (inactive),3.04 µM (inactive),5.19 µM (inactive),8.55 µM (inactive),8.02 µM (inactive),11.8 µM (inactive),2.12 µM (inactive),28.7 µM (inactive)
CCCCCCCCCCCNC=O,63 µM (inactive),54 µM (inactive),56.6 µM (inactive),75.5 µM (inactive),> 100 µM (inactive),25.9 µM (inactive),40.5 µM (inactive),> 100 µM (inactive),22.4 µM (inactive),52.8 µM (inactive),48.3 µM (inactive),36.9 µM (inactive),73.8 µM (inactive),23.7 µM (inactive),26.5 µM (inactive),84.7 µM (inactive),52 µM (inactive),63.4 µM (inactive),24.5 µM (inactive),68.5 µM (inactive)
O=C(O)C(C1NCCS1)N1C(=O)c2ccccc2C1=O (stereo not given),> 100 µM (inactive),> 100 µM (inactive),> 100 µM (inactive),> 100 µM (inactive),> 100 µM (inactive),> 100 µM (inactive),> 100 µM (inactive),> 100 µM (inactive),> 100 µM (inactive),> 100 µM (inactive),> 100 µM (inactive),> 100 µM (inactive),> 100 µM (inactive),> 100 µM (inactive),> 100 µM (inactive),> 100 µM (inactive),> 100 µM (inactive),> 100 µM (inactive),> 100 µM (inactive),> 100 µM (inactive)
CCN(CC)C(=S)N/N=C(/C)c1cccc(/C(C)=N\NC(=S)N(CC)CC)n1,1.38 µM (inactive),1.45 µM (inactive),6.37 µM (inactive),1.96 µM (inactive),4.39 µM (inactive),2.34 µM (inactive),0.678 µM (active),1.37 µM (inactive),1.89 µM (inactive),2.64 µM (inactive),0.951 µM (active),2.13 µM (inactive),3.35 µM (inactive),2.67 µM (inactive),0.389 µM (active),1.91 µM (inactive),5.64 µM (inactive),2.79 µM (inactive),3.23 µM (inactive),1.21 µM (inactive)
Cc1ccc2c(c1)C(=O)/C(=C\c1ccccc1)CCS2(=O)=O,19.8 µM (inactive),10.7 µM (inactive),16.9 µM (inactive),15.9 µM (inactive),8.51 µM (inactive),4.69 µM (inactive),11.4 µM (inactive),10.3 µM (inactive),19.7 µM (inactive),22.1 µM (inactive),15.5 µM (inactive),11.6 µM (inactive),10.8 µM (inactive),2.32 µM (inactive),1.07 µM (active),9.68 µM (inactive),15.8 µM (inactive),14.2 µM (inactive),4.36 µM (inactive),18.5 µM (inactive)
CC(C)(C)OC(=O)c1ccc(NCC2=CC(=O)C=CC2=O)cc1,6.38 µM (inactive),2.89 µM (inactive),12.5 µM (inactive),17.1 µM (inactive),15.1 µM (inactive),14 µM (inactive),10.1 µM (inactive),5.52 µM (inactive),15.2 µM (inactive),14.8 µM (inactive),9.91 µM (inactive),14.4 µM (inactive),12.9 µM (inactive),2.75 µM (inactive),1.76 µM (inactive),11.6 µM (inactive),15.7 µM (inactive),11.4 µM (inactive),1.63 µM (inactive),15.6 µM (inactive)
O=C(NN1CCCCC1)c1cc2cc(CCl)ccc2oc1=O,18.8 µM (inactive),10.5 µM (inactive),15.7 µM (inactive),21.9 µM (inactive),23.6 µM (inactive),16.9 µM (inactive),44.5 µM (inactive),27.4 µM (inactive),75.2 µM (inactive),14.2 µM (inactive),23.1 µM (inactive),17.7 µM (inactive),18.5 µM (inactive),16.7 µM (inactive),17.2 µM (inactive),19.4 µM (inactive),16.3 µM (inactive),18.4 µM (inactive),8.75 µM (inactive),29.3 µM (inactive)
O=[N+]([O-])c1cc2oc(COc3ccccc3)nc2cc1Cl,19.5 µM (inactive),33.7 µM (inactive),25.9 µM (inactive),24.9 µM (inactive),38.8 µM (inactive),22.8 µM (inactive),48.3 µM (inactive),19.1 µM (inactive),33.1 µM (inactive),21.9 µM (inactive),43.2 µM (inactive),12.7 µM (inactive),23.6 µM (inactive),40 µM (inactive),27.5 µM (inactive),19.5 µM (inactive),38.6 µM (inactive),24.7 µM (inactive),18 µM (inactive),32.6 µM (inactive)
